In patent US7732604B2, “Triazolopyrazine derivatives” (Pfizer Inc., priority 2006, dated 2010):

molecular target: T1, HGFR (Homo sapiens, UniProt P08581); test: HGFR continuous-coupled spectrophotometric assay (tyrosine kinase activity on Met-2 substrate peptide); type: biochemical; conditions: HGFR 50 nM, Met-2 peptide 0.5 mM, ATP 300 μM, 37° C., absorbance 340 nm; read-out: Ki
T1 construct: purchased Upstate 14-526
T1 sequence (P08581 974-1390 limits assumed): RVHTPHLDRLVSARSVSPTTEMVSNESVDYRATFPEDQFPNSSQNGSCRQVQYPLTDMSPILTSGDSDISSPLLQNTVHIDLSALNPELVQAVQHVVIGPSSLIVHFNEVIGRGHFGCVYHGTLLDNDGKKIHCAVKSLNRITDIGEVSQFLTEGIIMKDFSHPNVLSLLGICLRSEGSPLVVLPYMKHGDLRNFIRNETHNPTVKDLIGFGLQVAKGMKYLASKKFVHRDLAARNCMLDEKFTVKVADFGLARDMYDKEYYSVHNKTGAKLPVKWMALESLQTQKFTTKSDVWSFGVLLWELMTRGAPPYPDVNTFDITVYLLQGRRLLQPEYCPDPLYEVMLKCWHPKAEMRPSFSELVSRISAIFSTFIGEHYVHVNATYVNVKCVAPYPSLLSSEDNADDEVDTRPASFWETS

SMILES	Ki
CC(O)Cn1cc(-c2cnc3nnn(Cc4ccc5ncccc5c4)c3n2)cn1 (stereo not shown) [Example 59, 1-[4-(3-Quinolin-6-ylmethyl-3H-[1,2,3]triazolo[4,5-b]pyrazin-5-yl)-pyrazol-1-yl]-propan-2-ol]	11 nM
c1cnc2ccc(Cn3nnc4ncc(-c5cnn([C@@H]6CCOC6)c5)nc43)cc2c1 [Example 61, 6-{6-[(R)-1-(Tetrahydro-furan-3-yl)-1H-pyrazol-4-yl]-[1,2,3]triazolo[4,5-b]pyrazin-1-ylmethyl}-quinoline]	10 nM
c1cnc2ccc(Cn3nnc4ncc(-c5cnn([C@H]6CCOC6)c5)nc43)cc2c1 [Example 62, 6-{6-[(S)-1-(Tetrahydro-furan-3-yl)-1H-pyrazol-4-yl]-[1,2,3]triazolo[4,5-b]pyrazin-1-ylmethyl}-quinoline]	13 nM
Cc1n[nH]c(C)c1-c1cnc2nnn(Cc3ccc4ncccc4c3)c2n1 [Example 63, 6-[6-(3,5-Dimethyl-1H-pyrazol-4-yl)-[1,2,3]triazolo[4,5-b]pyrazin-1-ylmethyl]-quinoline]	22 nM
Cn1nc(C(F)(F)F)cc1-c1cnc2nnn(Cc3ccc4ncccc4c3)c2n1 [Example 64, 6-[6-(2-Methyl-5-trifluoromethyl-2H-pyrazol-3-yl)-[1,2,3]triazolo[4,5-b]pyrazin-1-ylmethyl]-quinoline]	4 nM
COC(=O)C(C)(C)n1cc(-c2cnc3nnn(Cc4ccc5ncccc5c4)c3n2)cn1 [Example 65, 2-Methyl-2-[4-(3-quinolin-6-ylmethyl-3H-[1,2,3]triazolo[4,5-b]pyrazin-5-yl)-pyrazol-1-yl]-propionic acid methyl ester]	47 nM
COC(=O)Cn1cc(-c2cnc3nnn(Cc4ccc5ncccc5c4)c3n2)cn1 [Example 66, [4-(3-Quinolin-6-ylmethyl-3H-[1,2,3]triazolo[4,5-b]pyrazin-5-yl)-pyrazol-1-yl]-acetic acid methyl ester]	18 nM
CC(C)(C(N)=O)n1cc(-c2cnc3nnn(Cc4ccc5ncccc5c4)c3n2)cn1 [Example 67, 2-[4-(3-Quinolin-6-ylmethyl-3H-[1,2,3]triazolo[4,5-b]pyrazin-5-yl)-pyrazol-1-yl]-isobutyramide]	41 nM
CC(C)(C(=O)O)n1cc(-c2cnc3nnn(Cc4ccc5ncccc5c4)c3n2)cn1 [Example 68, 2-Methyl-2-[4-(3-quinolin-6-ylmethyl-3H-[1,2,3]triazolo[4,5-b]pyrazin-5-yl)-pyrazol-1-yl]-propionic acid]	27 nM
CC1C(=O)NCCN1c1cnc2nnn(Cc3ccc4ncccc4c3)c2n1 (stereo not shown) [Example 75, 3-methyl-4-[1-(quino-lin-6-yl-methyl)-1H-[1,2,3]tri-azolo[4,5-b]py-razin-6-yl]pipe-razin-2-one]	23 nM
OC[C@@H]1CCCN1c1cnc2nnn(Cc3ccc4ncccc4c3)c2n1 [Example 76, {(2S)-1-[1-(quino-lin-6-yl-methyl)-1H-[1,2,3]tri-azolo[4,5-b]pyra-zin-6-yl]pyr-rolidin-2-yl}methanol]	65 nM

Results, then the molecule that gave them:

Ki	SMILES
11 nM	CNc1cnc2nnn(Cc3ccc4ncccc4c3)c2n1 [Example 57, Methyl-(3-quinolin-6-ylmethyl-3H-[1,2,3]triazolo[4,5-b]pyrazin-5-yl)-amine]
3 nM	c1cnc2ccc(Cn3nnc4ncc(-c5ccn[nH]5)nc43)cc2c1 [Example 69, 6-[6-(2H-Pyrazol-3-yl)-[1,2,3]triazolo[4,5-b]pyrazin-1-ylmethyl]-quinoline]
23 nM	COCCNc1cnc2nnn(Cc3ccc4ncccc4c3)c2n1 [Example 71, N-(2-meth-oxyethyl)-1-(quino-lin-6-yl-methyl)-1H-[1,2,3]tri-azolo[4,5-b]py-rain-6-amine]
37 nM	CC(C)N(CCO)c1cnc2nnn(Cc3ccc4ncccc4c3)c2n1 [Example 73, 2-{isopropyl[1-(quino-lin-6-yl-methyl)-1H-[1,2,3]tri-azolo[4,5-b]py-razyl-6-yl]ami-no}ethanol]
33 nM	CCN(CCO)c1cnc2nnn(Cc3ccc4ncccc4c3)c2n1 [Example 74, 2-{ethyl[1-(quino-lin-6-yl-methyl)-1H-[1,2,3]tri-azolo[4,5-b]py-razin-6-yl]ami-no}ethanol]
